Data as given in patent US7439052B2, “Method of making modified immunodeficiency virus particles” (Lipid Sciences, priority 2000, dated 2008).

Columns and labels:
SIVmac239 [1] = experiment: Plasma viral loads in macaques chronically infected with SIVmac239; type: in vivo
Description: (§1) A cohort of highly viremic macaques chronically infected for over two years with SIVmac239 was used as a chronic and pathogenic model of immunodeficiency virus infection. The animals were identified as RDg-7, RJo-6, RMi-7 and RSp-6. To test the effect on these animals of administration of a delipidated immunodeficiency virus composition comprising modified, partially delipidated immunodeficiency viral particles, also referred to as therapeutic vaccine compositions or therapeutic vaccines, autologous immunodeficiency virus was delipidated and administered to the experimental animals following a 30 day antiretroviral therapy (ART) with an antiviral drug PMPA. […] The animals were then subjected to lymph node targeted immunization at monthly intervals with 1, 1 and 10 μg of autologous delipidated SIV virus composition, obtained substantially as described elsewhere herein. Four weeks after the last boost, ART was discontinued and the animals were monitored for virological and immunological parameters.
The virological and immunological parameters were determined substantially as follows. Viral loads, schematically shown in FIGS. 13-18, were analyzed by SIV enzyme immunoassay (EIA) substantially as described elsewhere herein. […] Plates were read at a 450 nm wavelength using an ELISA reader. […]

SIVmac239 [2] = experiment: Absolute CD4 counts in SIV-infected macaques; type: in vivo; conditions: from pre-PMPA levels of <500/μl
Description: as §1

Which “viral loads after 30 day antiretroviral therapy” value (SIVmac239 [1]; macaques chronically infected with SIVmac239) does the source give for C[C@H](Cn1cnc2c(N)ncnc21)OCP(=O)(O)O [PMPA] here?
Its value is “less than 80 copies/ml of viral RNA”.

And the “plasma viral loads under treatment (below the limits of detection)” value (SIVmac239 [1]; reduced from 10^4-10^6)?
Its value is less than 10 viral RNA copies/ml.

And the “absolute CD4 counts” value (SIVmac239 [2])?
The value was “increases in absolute CD4 counts”.
